Results published in PubChem BioAssay (NCI).
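Dose response: 5 concentrations. Exposure: 48 h. Format: 96-well plates. Endpoint: linear interpolation; highest concentration if not reached. TGI denotes the concentration required for complete inhibition of growth.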

Tests used:
Experiment in all cases: NCI-60 cell line screen, 48 h
786-0 renal = tested on: 786-0 renal
A498 renal = tested on: A498 renal
A549 NSCLC = tested on: A549 NSCLC
ACHN renal = tested on: ACHN renal
CAKI-1 renal = tested on: CAKI-1 renal
CCRF-CEM leukemia = tested on: CCRF-CEM leukemia
COLO 205 colon = tested on: COLO 205 colon
DLD-1 colon = tested on: DLD-1 colon
DMS 114 small cell lung = tested on: DMS 114 small cell lung
DMS 273 small cell lung = tested on: DMS 273 small cell lung
EKVX NSCLC = tested on: EKVX NSCLC
HCC-2998 colon = tested on: HCC-2998 colon
HCT-15 colon = tested on: HCT-15 colon
HL-60(TB) leukemia = tested on: HL-60(TB) leukemia
HOP-18 NSCLC = tested on: HOP-18 NSCLC
HOP-62 NSCLC = tested on: HOP-62 NSCLC
HOP-92 NSCLC = tested on: HOP-92 NSCLC
HT29 colon = tested on: HT29 colon
IGROV1 ovarian = tested on: IGROV1 ovarian
K-562 leukemia = tested on: K-562 leukemia
KM12 colon = tested on: KM12 colon
KM20L2 colon = tested on: KM20L2 colon
LOX IMVI melanoma = tested on: LOX IMVI melanoma
M19-MEL melanoma = tested on: M19-MEL melanoma
MALME-3M melanoma = tested on: MALME-3M melanoma
MOLT-4 leukemia = tested on: MOLT-4 leukemia
NCI-H23 lung = tested on: NCI-H23 lung
NCI-H460 lung = tested on: NCI-H460 lung
NCI-H522 lung = tested on: NCI-H522 lung
OVCAR-3 ovarian = tested on: OVCAR-3 ovarian
OVCAR-5 ovarian = tested on: OVCAR-5 ovarian
OVCAR-8 ovarian = tested on: OVCAR-8 ovarian
RPMI-8226 leukemia = tested on: RPMI-8226 leukemia
RXF 393 renal = tested on: RXF 393 renal
SF-268 CNS = tested on: SF-268 CNS
SF-295 CNS = tested on: SF-295 CNS
SF-539 CNS = tested on: SF-539 CNS
SK-MEL-2 melanoma = tested on: SK-MEL-2 melanoma
SK-MEL-28 melanoma = tested on: SK-MEL-28 melanoma
SK-MEL-5 melanoma = tested on: SK-MEL-5 melanoma
SK-OV-3 ovarian = tested on: SK-OV-3 ovarian
SN12C renal = tested on: SN12C renal
SNB-19 CNS = tested on: SNB-19 CNS
SNB-75 CNS = tested on: SNB-75 CNS
SNB-78 CNS = tested on: SNB-78 CNS
SW-620 colon = tested on: SW-620 colon
TK-10 renal = tested on: TK-10 renal
U251 CNS = tested on: U251 CNS
UACC-257 melanoma = tested on: UACC-257 melanoma
UACC-62 melanoma = tested on: UACC-62 melanoma
UO-31 renal = tested on: UO-31 renal
HCT-116 colon = tested on: HCT-116 colon
LXFL 529 NSCLC = tested on: LXFL 529 NSCLC
M14 melanoma = tested on: M14 melanoma
NCI-H226 lung = tested on: NCI-H226 lung
OVCAR-4 ovarian = tested on: OVCAR-4 ovarian
SR leukemia = tested on: SR leukemia

**Q.** How did the TGI (786-0 renal) turn out when `COc1cc(/C=C/C(=O)c2sc(Nc3ccccc3)nc2C)ccc1O` was run?
**A.** > 100 µM

**Q.** And the TGI (A498 renal)?
**A.** > 100 µM

**Q.** And the TGI (A549 NSCLC)?
**A.** > 100 µM

**Q.** And the TGI (ACHN renal)?
**A.** > 100 µM

**Q.** What about the TGI (CAKI-1 renal) of the same compound?
**A.** > 100 µM

**Q.** What about the TGI (CCRF-CEM leukemia) of the same compound?
**A.** > 100 µM

**Q.** What about the TGI (COLO 205 colon) of the same compound?
**A.** > 100 µM

**Q.** And the TGI (DLD-1 colon)?
**A.** > 100 µM

**Q.** And the TGI (DMS 114 small cell lung)?
**A.** > 100 µM

**Q.** What about the TGI (DMS 273 small cell lung) of the same compound?
**A.** > 100 µM

**Q.** And the TGI (EKVX NSCLC)?
**A.** > 100 µM

**Q.** And the TGI (HCC-2998 colon)?
**A.** > 100 µM

**Q.** What about the TGI (HCT-15 colon) of the same compound?
**A.** > 100 µM

**Q.** And the TGI (HL-60(TB) leukemia)?
**A.** > 100 µM

**Q.** And the TGI (HOP-18 NSCLC)?
**A.** > 100 µM

**Q.** What about the TGI (HOP-62 NSCLC) of the same compound?
**A.** > 100 µM

**Q.** And the TGI (HOP-92 NSCLC)?
**A.** > 100 µM

**Q.** What about the TGI (HT29 colon) of the same compound?
**A.** > 100 µM

**Q.** What about the TGI (IGROV1 ovarian) of the same compound?
**A.** > 100 µM

**Q.** What about the TGI (K-562 leukemia) of the same compound?
**A.** > 100 µM

**Q.** And the TGI (KM12 colon)?
**A.** > 100 µM

**Q.** What about the TGI (KM20L2 colon) of the same compound?
**A.** > 100 µM

**Q.** What about the TGI (LOX IMVI melanoma) of the same compound?
**A.** > 100 µM

**Q.** And the TGI (M19-MEL melanoma)?
**A.** > 100 µM

**Q.** And the TGI (MALME-3M melanoma)?
**A.** > 100 µM

**Q.** And the TGI (MOLT-4 leukemia)?
**A.** > 100 µM

**Q.** What about the TGI (NCI-H23 lung) of the same compound?
**A.** > 100 µM

**Q.** What about the TGI (NCI-H460 lung) of the same compound?
**A.** > 100 µM

**Q.** What about the TGI (NCI-H522 lung) of the same compound?
**A.** > 100 µM

**Q.** What about the TGI (OVCAR-3 ovarian) of the same compound?
**A.** > 100 µM

**Q.** What about the TGI (OVCAR-5 ovarian) of the same compound?
**A.** > 100 µM

**Q.** And the TGI (OVCAR-8 ovarian)?
**A.** > 100 µM

**Q.** What about the TGI (RPMI-8226 leukemia) of the same compound?
**A.** > 100 µM

**Q.** And the TGI (RXF 393 renal)?
**A.** > 100 µM

**Q.** What about the TGI (SF-268 CNS) of the same compound?
**A.** > 100 µM

**Q.** What about the TGI (SF-295 CNS) of the same compound?
**A.** > 100 µM

**Q.** And the TGI (SF-539 CNS)?
**A.** > 100 µM

**Q.** And the TGI (SK-MEL-2 melanoma)?
**A.** > 100 µM

**Q.** And the TGI (SK-MEL-28 melanoma)?
**A.** > 100 µM

**Q.** What about the TGI (SK-MEL-5 melanoma) of the same compound?
**A.** > 100 µM

**Q.** What about the TGI (SK-OV-3 ovarian) of the same compound?
**A.** > 100 µM

**Q.** What about the TGI (SN12C renal) of the same compound?
**A.** > 100 µM

**Q.** And the TGI (SNB-19 CNS)?
**A.** > 100 µM

**Q.** And the TGI (SNB-75 CNS)?
**A.** 84.8 µM

**Q.** And the TGI (SNB-78 CNS)?
**A.** > 100 µM

**Q.** What about the TGI (SW-620 colon) of the same compound?
**A.** > 100 µM

**Q.** What about the TGI (TK-10 renal) of the same compound?
**A.** > 100 µM

**Q.** And the TGI (U251 CNS)?
**A.** > 100 µM

**Q.** And the TGI (UACC-257 melanoma)?
**A.** > 100 µM

**Q.** What about the TGI (UACC-62 melanoma) of the same compound?
**A.** > 100 µM

**Q.** What about the TGI (UO-31 renal) of the same compound?
**A.** > 100 µM

**Q.** For `CCC(CC)n1c(C)nc2c1C(=O)c1ccccc1C2=O`, which TGI (786-0 renal) is on record?
**A.** > 100 µM

**Q.** And the TGI (A549 NSCLC)?
**A.** > 100 µM

**Q.** And the TGI (ACHN renal)?
**A.** > 100 µM

**Q.** And the TGI (CCRF-CEM leukemia)?
**A.** > 100 µM

**Q.** And the TGI (COLO 205 colon)?
**A.** > 100 µM

**Q.** What about the TGI (DLD-1 colon) of the same compound?
**A.** > 100 µM

**Q.** What about the TGI (DMS 273 small cell lung) of the same compound?
**A.** > 100 µM

**Q.** And the TGI (EKVX NSCLC)?
**A.** > 100 µM

**Q.** And the TGI (HCC-2998 colon)?
**A.** > 100 µM

**Q.** And the TGI (HCT-116 colon)?
**A.** 77.4 µM

**Q.** And the TGI (HCT-15 colon)?
**A.** > 100 µM

**Q.** And the TGI (HL-60(TB) leukemia)?
**A.** > 100 µM

**Q.** What about the TGI (HOP-62 NSCLC) of the same compound?
**A.** > 100 µM

**Q.** What about the TGI (HOP-92 NSCLC) of the same compound?
**A.** > 100 µM

**Q.** And the TGI (HT29 colon)?
**A.** > 100 µM

**Q.** And the TGI (IGROV1 ovarian)?
**A.** > 100 µM

**Q.** What about the TGI (K-562 leukemia) of the same compound?
**A.** > 100 µM

**Q.** What about the TGI (KM12 colon) of the same compound?
**A.** > 100 µM

**Q.** What about the TGI (KM20L2 colon) of the same compound?
**A.** > 100 µM

**Q.** What about the TGI (LOX IMVI melanoma) of the same compound?
**A.** 54.7 µM

**Q.** What about the TGI (LXFL 529 NSCLC) of the same compound?
**A.** > 100 µM

**Q.** What about the TGI (M14 melanoma) of the same compound?
**A.** > 100 µM

**Q.** And the TGI (M19-MEL melanoma)?
**A.** 33.4 µM

**Q.** What about the TGI (MALME-3M melanoma) of the same compound?
**A.** 73.6 µM

**Q.** And the TGI (MOLT-4 leukemia)?
**A.** > 100 µM

**Q.** And the TGI (NCI-H226 lung)?
**A.** > 100 µM

**Q.** And the TGI (NCI-H23 lung)?
**A.** 54 µM

**Q.** What about the TGI (NCI-H460 lung) of the same compound?
**A.** 49.7 µM

**Q.** What about the TGI (NCI-H522 lung) of the same compound?
**A.** > 100 µM

**Q.** And the TGI (OVCAR-3 ovarian)?
**A.** 75.7 µM

**Q.** What about the TGI (OVCAR-4 ovarian) of the same compound?
**A.** > 100 µM

**Q.** And the TGI (OVCAR-8 ovarian)?
**A.** > 100 µM

**Q.** What about the TGI (RXF 393 renal) of the same compound?
**A.** > 100 µM

**Q.** And the TGI (SF-268 CNS)?
**A.** > 100 µM

**Q.** What about the TGI (SF-295 CNS) of the same compound?
**A.** > 100 µM

**Q.** And the TGI (SF-539 CNS)?
**A.** > 100 µM

**Q.** And the TGI (SK-MEL-2 melanoma)?
**A.** > 100 µM

**Q.** And the TGI (SK-MEL-28 melanoma)?
**A.** > 100 µM

**Q.** And the TGI (SK-MEL-5 melanoma)?
**A.** 37.1 µM

**Q.** And the TGI (SK-OV-3 ovarian)?
**A.** > 100 µM

**Q.** What about the TGI (SN12C renal) of the same compound?
**A.** > 100 µM

**Q.** What about the TGI (SNB-19 CNS) of the same compound?
**A.** > 100 µM

**Q.** What about the TGI (SNB-75 CNS) of the same compound?
**A.** > 100 µM

**Q.** What about the TGI (SNB-78 CNS) of the same compound?
**A.** > 100 µM

**Q.** And the TGI (SR leukemia)?
**A.** > 100 µM

**Q.** What about the TGI (SW-620 colon) of the same compound?
**A.** > 100 µM

**Q.** And the TGI (TK-10 renal)?
**A.** > 100 µM

**Q.** What about the TGI (U251 CNS) of the same compound?
**A.** > 100 µM

**Q.** And the TGI (UACC-257 melanoma)?
**A.** 72.7 µM

**Q.** What about the TGI (UACC-62 melanoma) of the same compound?
**A.** 36.2 µM

**Q.** And the TGI (UO-31 renal)?
**A.** > 100 µM
